Experiments:
C57BL/6J mice = assay: Glucokinase activator in vivo screen protocol (blood glucose after oral dosing); conditions: oral gavage 50 mg/kg after two hour fast, blood glucose at 1, 2, 4 and 6 hours post dose, active = p≦0.05 decrease for two consecutive time points
Description: Glucokinase Activator in vivo Screen Protocol
C57BL/6J. mice are orally dosed via gavage with Glucokinase (GK) activator at 50 mg/kg body weight following a two hour fasting period. Blood glucose determinations are made five times during the six hour post-dose study period.
Mice (n=6) are weighed and fasted for a two hour period prior to oral treatment. GK activators are formulated at 6.76 mg/ml in Gelucire vehicle (Ethanol:Gelucire44/14:PEG400q.s. 4:66:30 v/w/v. Mice are dosed orally with 7.5 μl formulation per gram of body weight to equal a 50 mg/kg dose. Immediately prior to dosing, a pre dose (time zero) blood glucose reading is acquired by snipping off a small portion of the animals tail (˜1 mm) and collecting 15 μl blood into a heparinized capillary tube for analysis. Following GK activator administration, additional blood glucose readings are taken at 1, 2, 4 and 6 hours post dose from the same tail wound. Results are interpreted by comparing the mean blood glucose values of six vehicle treated mice with six GK activator treated mice over the six hour study duration.

In the case of CC/C=C(/C(=O)Nc1nccs1)c1ccc(S(C)(=O)=O)cc1 [Example 1, (E)-2-(4-Methanesulfonyl-phenyl)-pent-2-enoic acid thiazol-2-ylamide], the melting point is reported as 155 to 158 °C.

With CS(=O)(=O)c1ccc(/C(=C\C2CCCC2)C(=O)Nc2nccs2)cc1 [Example 3, (E)-3-Cyclopentyl-2-(4-methanesulfonyl-phenyl)-N-thiazol-2-yl-acrylamide] the “glucokinase activator in vivo activity (decrease in blood glucose compared to vehicle)” value (C57BL/6J mice) was “excellent glucokinase activator in vivo activity” and the melting point was 172 to 173 °C.

For CS(=O)(=O)c1ccc(/C(=C\C2CCCCC2)C(=O)Nc2nccs2)cc1 [Example 4, (E)-3-Cyclohexyl-2-(4-methanesulfonyl-phenyl)-N-thiazol-2-yl-acrylamide], the “glucokinase activator in vivo activity (decrease in blood glucose compared to vehicle)” value (C57BL/6J mice) was “excellent glucokinase activator in vivo activity”.

With CS(=O)(=O)c1ccc(/C(=C\C2CCCCCC2)C(=O)Nc2nccs2)cc1 [Example 5, (E)-3-Cycloheptyl-2-(4-methanesulfonyl-phenyl)-N-thiazol-2-yl-acrylamide] the “glucokinase activator in vivo activity (decrease in blood glucose compared to vehicle)” value (C57BL/6J mice) was “excellent glucokinase activator in vivo activity” and the melting point was 163 to 165 °C.

CS(=O)(=O)c1ccc(/C(=C\C2CCCC2)C(=O)Nc2ncc(Br)s2)cc1 [Example 7, (E)-N-(5-Bromo-thiazol-2-yl)-3-cyclopentyl-2-(4-methanesulfonyl-phenyl)-acrylamide] showed a melting point of 202 to 205 °C.

For O=C(Nc1nccs1)/C(=C/C1CCCC1)c1ccc(Cl)c(Cl)c1 [Example 8, (E)-3-Cyclopentyl-2-(3,4-dichloro-phenyl)-N-thiazol-2-yl-acrylamide], the melting point was 57 to 59 °C.

With CS(=O)(=O)c1ccc(/C(=C\C2CCCC2)C(=O)Nc2nccs2)cc1Cl [Example 9, (E)-2-(3-Chloro-4-methanesulfonyl-phenyl)-3-cyclopentyl-N-thiazol-2-yl-acrylamide] the “glucokinase activator in vivo activity (decrease in blood glucose compared to vehicle)” value (C57BL/6J mice) was “excellent glucokinase activator in vivo activity”.

With CS(=O)(=O)c1ccc(/C(=C\C2CCCCC2)C(=O)Nc2nccs2)cc1C(F)(F)F [Example 12, (E)-3-Cyclohexyl-2-(4-methanesulfonyl-3-trifluoromethyl-phenyl)-N-thiazol-2-yl-acrylamide] the “glucokinase activator in vivo activity (decrease in blood glucose compared to vehicle)” value (C57BL/6J mice) was “excellent glucokinase activator in vivo activity”.

For CS(=O)(=O)c1ccc(/C(=C\C2CCCCC2)C(=O)Nc2nccs2)cc1[N+](=O)[O-] [Example 14, (E)-3-Cyclohexyl-2-(4-methanesulfonyl-3-nitro-phenyl)-N-thiazol-2-yl-acrylamide], the “glucokinase activator in vivo activity (decrease in blood glucose compared to vehicle)” value (C57BL/6J mice) was “excellent glucokinase activator in vivo activity”.

With CS(=O)(=O)c1ccc(/C(=C\C2CCCCCC2)C(=O)Nc2ncc(Br)s2)cc1 [Example 16, (E)-N-(5-Bromo-thiazol-2-yl)-3-cycloheptyl-2-(4-methanesulfonyl-phenyl)-acrylamide] the “glucokinase activator in vivo activity (decrease in blood glucose compared to vehicle)” value (C57BL/6J mice) was “excellent glucokinase activator in vivo activity” and the melting point was 159 to 163 °C.

In the case of CS(=O)(=O)c1ccc(/C(=C\C2CCCC2)C(=O)Nc2ccccn2)cc1Cl [Example 19, (E)-2-(3-Chloro-4-methanesulfonyl-phenyl)-3-cyclopentyl-N-pyridin-2-yl-acrylamide], the “glucokinase activator in vivo activity (decrease in blood glucose compared to vehicle)” value (C57BL/6J mice) is reported as “excellent glucokinase activator in vivo activity”.

In the case of CS(=O)(=O)c1ccc(/C(=C\C2CCCCC2)C(=O)Nc2ccc(Br)cn2)cc1C(F)(F)F [Example 20, (E)-N-(5-Bromo-pyridin-2-yl)-3-cyclohexyl-2-(4-methanesulfonyl-3-trifluoromethyl-phenyl)-acrylamide], the “glucokinase activator in vivo activity (decrease in blood glucose compared to vehicle)” value (C57BL/6J mice) is reported as “excellent glucokinase activator in vivo activity”.

With CS(=O)(=O)c1ccc(/C(=C\CC2CCCC2)C(=O)Nc2nccs2)cc1 [Example 21, (E)-4-Cyclopentyl-2-(4-methanesulfonyl-phenyl)-but-2-enoic acid thiazol-2-ylamide] the “glucokinase activator in vivo activity (decrease in blood glucose compared to vehicle)” value (C57BL/6J mice) was “excellent glucokinase activator in vivo activity” and the melting point was 173 to 176 °C.

With COC(=O)c1csc(NC(=O)/C(=C/CC2CCCC2)c2ccc(S(C)(=O)=O)cc2)n1 [Example 22, (E)-2-[4-Cyclopentyl-2-(4-methanesulfonyl-phenyl)-but-2-enoylamino]-thiazole-4-carboxylic acid methyl ester] the “glucokinase activator in vivo activity (decrease in blood glucose compared to vehicle)” value (C57BL/6J mice) was “excellent glucokinase activator in vivo activity” and the melting point was 85 to 90 °C.

For CS(=O)(=O)c1ccc(/C(=C\CC2CCCC2)C(=O)Nc2nccs2)cc1C(F)(F)F [Example 25, (E)-4-Cyclopentyl-2-(4-methanesulfonyl-3-trifluoromethyl-phenyl)-but-2-enoic acid thiazol-2-ylamide], the “glucokinase activator in vivo activity (decrease in blood glucose compared to vehicle)” value (C57BL/6J mice) was “excellent glucokinase activator in vivo activity”.

With CNC(=O)NC(=O)/C(=C/C(C)C)c1ccc(Cl)c(Cl)c1 [Example 26, (E)-1-[2-(3,4-Dichloro-phenyl)-4-methyl-pent-2-enoyl]-3-methyl-urea] the melting point was 177 to 178 °C.

For CNC(=O)NC(=O)/C(=C/C1CCCCC1)c1ccc(S(C)(=O)=O)c(C(F)(F)F)c1 [Example 27, (E)-1-[3-Cyclohexyl-2-(4-methanesulfonyl-3-trifluoromethyl-phenyl)-acryloyl]-3-methyl-urea], the melting point was 199 to 202 °C.
